The source of these data is patent US6700013B2, “Tricyclic fused heterocycle compounds, process for preparing the same and use thereof” (Nippon Suisan Kaisha, Ltd., priority 1999, dated 2004).

Series [1] concerns pig tracheal smooth muscles. The series can be described thus: Dilating action on contraction of tracheal smooth muscles (high K+ contraction, Magnus tube). The conditions noted are these: Sus scrofa, 2 h; K+ contraction (72.7 mM); test substance final concentration 10 μM; two hours after addition; tension before addition = 100%; read-out: Relative Contraction Force (%). From the text:
With the use of pig tracheal muscles, the action of the compounds of the present invention on contraction of tracheal muscles has been investigated. The method refers to “Smooth Muscle Manual” (published by Bun'eido Publishing Co.), pp. 125-137. The trachea cartilage mucous membrane and submucous tissue of a pig trachea were removed to prepare a specimen of tracheal smooth muscles having a major diameter of about 10 mm and a minor diameter of about 1.5 mm. This specimen was suspended in a Magnus tube which was aerated with a mixed gas of 95% of oxygen and 5% of carbon dioxide and contained nutrient solution at 37° C. and a load of 0.8 g was applied to this specimen, and after the tension of the specimen was stabilized, the nutrient solution was replaced with a high concentration K^+ solution (72.7 mM) to provoke K^+ contraction. The procedure of replacing the solution in the Magnus tube with the nutrient solution to wash the solution and provoking K^+ contraction with the high concentration K^+ solution was repeated again until the contraction force became constant. When the tension of the K^+ contraction became constant, each of the compounds described in Table 19 (the structural formula of the Comparative Example being described in the right side of the compound of the above described Example 180) was added to the high concentration K^+ solution as the test substance to measure the change in tension. The test substance was dissolved in dimethyl sulfoxide at a predetermined concentration and added to the high concentration K^+ solution in such a manner that the final concentration came to 10 μM. The trachea cartilage mucous membrane and submucous tissue of a pig trachea were removed to prepare a specimen of tracheal smooth muscles having a major diameter of about 10 mm and a minor diameter of about 1.5 mm. This specimen was suspended in a Magnus tube which was aerated with a mixed gas of 95% of oxygen and 5% of carbon dioxide and contained nutrient solution at 37° C. and a load of 0.8 g was applied to this specimen, and after the tension of the specimen was stabilized, the nutrient solution was replaced with a high concentration K+ solution (72.7 mM) to provoke K+ contraction. The procedure of replacing the solution in the Magnus tube with the nutrient solution to wash the solution and provoking K+ contraction with the high concentration K+ solution was repeated again until the contraction force became constant. When the tension of the K+ contraction became constant, each of the compounds described in Table 19 (the structural formula of the Comparative Example being described in the right side of the compound of the above described Example 180) was added to the high concentration K+ solution as the test substance to measure the change in tension. The test substance was dissolved in dimethyl sulfoxide at a predetermined concentration and added to the high concentration K+ solution in such a manner that the final concentration came to […]. Further, the final concentration of dimethyl sulfoxide added was made 0.3% or less. The change in tension was led to a strain pressure amplifier (“AP-621G3”, manufactured by Nippon Koden Kogyo) through a FD pickup transducer (“TB-611T”, manufactured by Nippon Koden Kogyo) and recorded on a recorder (“R-64V”, manufactured by Rika Electric). When the tension before replacement with the high concentration K+ solution was regarded as 0% and the last tension which was generated by the high concentration K+ solution before the addition of a test substance was regarded as 100%, the contraction force of the tracheal smooth muscle two hours after addition of a test substance was shown as relative percentage. […]

The subject of the next series is Sprague-Dawley line rats. The experiment in a line: Toxicity study of two-week repeated-dose oral administration with rats. Type of series: in vivo. The following applies: male, oral, 0, 125 and 500 mg/kg/day repeatedly for two weeks. As for the experimental part: In order to study the toxicity by repeated-dose administration of compounds, the compounds were dosed orally to Sprague-Dawley line rats (three male rats per group) with 0, 125 and 500 mg/kg/day (a 0.5 w/v % CMC-Na solution) repeatedly for two weeks.

The subject of series [2] is actively sensitized guinea pigs. The experiment in a line: Inhibition of immediate (IAR) and late (LAR) asthmatic response, specific airway resistance (sRaw). In kind it is in vivo, guinea pig. The following applies: orally 10 mg/kg one hour before OVA challenge. As for the experimental part: It is reported [Pepys, J. and Hutchcroft, B. J., Bronchial provocation tests in etiologic diagnosis and Analysis of asthma, Am. Rev. Respir. Dis., 112, 829-859 (1975)] that when asthmatic patients are allowed to inhale an antigen, immediate asthmatic response (hereinafter referred to as “IAR”) whose peak is 15 to 30 minutes after inhalation is provoked and recovery from this response is within two hours; however, in 60% of the asthmatic patients late asthmatic response (hereinafter referred to as “LAR”) appears 4 to 12 hours after the inhalation of the antigen. […] On the other hand, it is known that when the guinea pigs actively sensitized with an antigen are allowed to inhale the antigen again, biphasic airway responses are caused. Accordingly, as the animal model line of IAR and LAR which are recognized in the above described asthmatic patients, the asthmatic model using guinea pigs is widely used in the evaluation of drugs for asthma and the like. […]
The specific airway resistance (hereinafter referred to as “sRaw”) was measured, 1 minute, 10 minutes and 30 minutes after challenge and furthermore, 1 hour, 2 hours, 3 hours, 4 hours, 5 hours, 6 hours, 7 hours, 8 hours and 24 hours, each time for the duration of 1 minute with the use of airway resistance measuring equipment (“Pulmos-1”, M.I.P.S., Japan). […]

For series [3] the test system is unchanged. The experiment in a line: Number of inflammatory cells in bronchoalveolar lavage fluid after antigen challenge. Type of series: in vivo, guinea pig. The following applies: orally 10 mg/kg one hour before OVA challenge. As for the experimental part: It is reported [Pepys, J. and Hutchcroft, B. J., Bronchial provocation tests in etiologic diagnosis and Analysis of asthma, Am. Rev. Respir. Dis., 112, 829-859 (1975)] that when asthmatic patients are allowed to inhale an antigen, immediate asthmatic response (hereinafter referred to as “IAR”) whose peak is 15 to 30 minutes after inhalation is provoked and recovery from this response is within two hours; however, in 60% of the asthmatic patients late asthmatic response (hereinafter referred to as “LAR”) appears 4 to 12 hours after the inhalation of the antigen. […] On the other hand, it is known that when the guinea pigs actively sensitized with an antigen are allowed to inhale the antigen again, biphasic airway responses are caused. Accordingly, as the animal model line of IAR and LAR which are recognized in the above described asthmatic patients, the asthmatic model using guinea pigs is widely used in the evaluation of drugs for asthma and the like. Furthermore, it is known that in the IAR and LAR model of guinea pigs, when actively sensitized guinea pigs are exposed to an antigen, infiltration of inflammatory cells into the airway occurs together with the biphasic airway contraction to cause various inflammatory disorders to airway tissues thereby. Therefore, the number of inflammatory cells in the bronchoalveolar lavage fluid is widely used as the index for the infiltration of inflammatory cells into the airway. Each of the above described actions in the IAR and LAR model of guinea pigs was examined with the compounds of the present invention.
Guinea pigs were allowed to inhale a 1% ovalbumin (“OVA”, sigma-Aldrich Co., U.S.A.) physiological saline for 10 minutes daily continuously for 8 days using of an ultrasonic nebulizer (“NE-U12”, Omron, Japan).
One week after the final sensitization, the guinea pigs were allowed to inhale a 2% “OVA” physiological saline for 5 minutes using of the nebulizer. Twenty-four hours and one hour before challenge, the guinea pigs were dosed with metyrapone (10 mg/kg, Sigma-Aldrich Co., U.S.A.) intravenously, and dosed with pyrilamine (10 mg/kg, Sigma-Aldrich Co., U.S.A.) intraperitoneally 30 minutes before challenge.
Each of the test substances (Compounds of Examples 1 and 4) was formed into a suspension with a 0.5% carboxymethyl cellulose sodium salt (hereinafter referred to as “CMC-Na”) solution at a concentration of 2 mg/mL. One hour before challenge, the guinea pigs were orally dosed with the suspension of the test substance with such a dose so as to be 10 mg/kg. For the control group the medium (a 0.5% CMC-Na solution) was used.
Twenty-three to twenty-four hours after the antigen challenge, the abdominal aorta of the guinea pigs was cut under intraperitoneal anesthesia with “Nembutal” (50 mg/kg) to remove blood and the chest was opened. A tube was inserted in the bronchus and fixed thereto and through this tube, 5 mL (37° C.) of a physiological saline was injected and sucked therethrough; this procedure was repeated twice (10 mL in total) and the recovered fluid was regarded as the bronchoalveolar lavage fluid (hereinafter referred to as “BALF”). BALF was centrifuged at 1,100 rmp at 4° C. for 10 minutes to obtain a precipitate (a pellet). This pellet was suspended in 1 mL of a physiological saline and a Turkliquid was added thereto and the number of leukocytes per μL was counted with a leukocyte counter plate. Centrifugation was repeated under the above described conditions and rabbit serum was added to the obtained pellet to prepare a smear preparation. After drying, the preparation was subjected to the May Grunwald-Giemsa stain. The number of leukocytes was counted by a microscope and the ratio to the total number of cells of neutrophils, eosinophils, macrophages and lymphocytes was obtained and the number of cells per μL was calculated on the basis of this ratio.
The obtained test results were shown by mean values and standard deviations and the student's t-test was carried out. […]

Series [4] shares this test system. The experiment in a line: Antigen induced airway hypersensitivity, airway reactivity to acetylcholine (PC100ACh). In kind it is in vivo, guinea pig. The conditions noted are these: orally 10 mg/kg 16 hours and 2 hours before the OVA challenge; 22 to 26 hours after challenge. From the text:
Bronchial asthma is a disease characterized by bronchial contraction, airway hypersensitivity and infiltration of inflammatory cells into the airway. Airway hypersensitivity is a condition in which the airway sensitively produces a contraction response to various slight stimuli. Particularly, airway hypersensitivity is considered to be a common feature among patients suffering from allergic bronchial asthma. This experimental system in which actively sensitized guinea pigs are used is useful as a airway hypersensitivity model. […]
The specific airway resistance (sRaw) of wake guinea pigs was measured by the double flow plethysmography with the use of airway resistance measuring equipment (“Pulmos-1”, M.I.P.S., Japan).
[…], from twenty-two to twenty-six hours after the antigen challenge, the guinea pigs were placed in an animal chamber and allowed to inhale a physiological saline and acetylcholine (hereinafter referred to as “ACh”) solutions of 0.0625, 0.125, 0.25, 0.5, 1 and 2 mg/mL , respectively, in the order named, each for one minute until sRaw came to the value at least twice the baseline sRaw (sRaw after the inhalation of the physiological saline). The ACh concentration (hereinafter referred to as “PC100ACh”) necessary for 100% increase in the baseline sRaw was calculated from the concentration of ACh and sRaw-resistance curve. […]

Where [5] appears, read: 24 hours after antigen challenge, average.

With `Oc1cc(O)c2c(c1)Sc1ccccc1CC2` [Comparative Example, reference compound], the activity at 10 µM in series [1] stood at 54.5%. In addition, in the series on Sprague-Dawley line rats, the “Results (toxicity findings)” value is reported as “Kidney damage were observed with”.
`CSc1ccc2c(c1)CC(=O)c1c(O)cc(O)cc1S2` [Example 1, 2-Methylthio-7,9-dihydroxy-10,11-dihydrodibenzo[b,f]thiepin-10-one]: the activity at 10 µM in series [1] came to 0%. For the same molecule, the “IAR (% change in sRaw) inhibited by, compared to the control group” value in series [2] was 70%. The “LAR (AUC) inhibited by, compared to the control group” value in series [2] (AUC from 4 hours to 8 hours) is 77%. Moreover, in the series on Sprague-Dawley line rats, the “Results (toxicity findings)” value is given as “No abnormalities were recognized”. Besides, in series [3], the “change in number of eosinophils compared to the control group” value is “tendency”, the “change in number of lymphocytes compared to the control group” value was “tendency”, the “change in number of neutrophils compared to the control group” value was “tendency” and the “change in total number of cells compared to the control group” value was “significant decrease”. In addition, in series [3] (setting [5]), the “number of cells of eosinophils in bronchoalveolar lavage fluid” value turned out to be 810 µL⁻¹, the “number of cells of lymphocytes in bronchoalveolar lavage fluid” value came to 21 µL⁻¹, the “number of cells of macrophages in bronchoalveolar lavage fluid” value is on record as 1,872 /μL and the “number of cells of neutrophils in bronchoalveolar lavage fluid” value is listed as 1,072 /μL. Also, in series [3] (setting [5]), the “total number of cells in bronchoalveolar lavage fluid” value was 3,775 /μL.
Broadly, the melting point is the temperature, or range, at which the solid turns liquid. For the molecule `O=C1Cc2c(Cl)cccc2Sc2cc(O)cc(O)c21` [Example 17], the melting point was > 200 °C (dec.). Further, the activity at 10 µM in series [1] worked out at 0%.
For `Oc1cc(O)c2c(c1)Sc1cccc(Cl)c1CC2` [Example 27] the same measures were 127.3 to 130.7 °C and 1.4%.
As to `CC1C(=O)c2cc(O)c(O)cc2Sc2ccccc21` (stereo not drawn) [Example 37], the activity at 10 µM in series [1] is 7.5%.
`O=C1Cc2ccc(-c3ccco3)cc2Sc2cc(O)cc(O)c21` [Example 82]: the melting point lay within 234.9 to 238.8 °C. The activity at 10 µM in series [1] is 22.4%.
On the same counts, the results for `Oc1cc(O)c2c(c1)Oc1cc(-c3cccs3)ccc1CC2` [Example 110] are 194.2 to 195.6 °C and 10.9%.
On the same counts, the results for `Oc1cc(O)c2c(c1)Sc1cc(-c3ccco3)ccc1CC2` [Example 124] are 148.5 to 149.6 °C and 30.3%.
As for `C[C@@H]1C[C@H]2[C@@H]3CCC4=CC(=O)C=C[C@]4(C)[C@@]3(F)[C@@H](O)C[C@]2(C)[C@@]1(O)C(=O)CO` [dexamethasone, Dexamethasone], in series [4], the PC100ACh was 1.14 mg/mL.
